Patent US6630615B1, “Defense-related signaling genes and methods of use” (Pioneer Hi-Bred International, Inc., priority 1999, dated 2003)
Entries after “also recorded” stand apart in the source; their conditions may differ.

Test system: sunflower NCE gene expression
Assay: Northern blot analysis of NCE gene transcript levels under different chemical treatments
Format: in vivo
Settings: six-week-old SMF3 sunflower plants sprayed with 5 mM oxalic acid, 5 mM H2O2, 5 mM salicylic acid or 45 μM jasmonic acid (0.1% ethanol); leaf samples at 0, 6, 12, 24 hours
Protocol: FIG. 4 depicts the results of a Northern blot analysis of NCE gene transcript levels under different chemical treatments. Six-week-old sunflower plants were sprayed with oxalic acid (OA) (5 mM), H2O2 (5 mM), salicylic acid (SA) (5 mM), and jasmonic acid (JA) (45 μM in 0.1% ethanol). The leaf samples were collected at 0, 6, 12, and 24 hours after the applications and immediately frozen in liquid nitrogen. Twenty μg of total RNA was loaded in each sample lane. (CK, control)
For fungal infection and chemical treatments, SMF3 sunflower plants were planted in four-inch pots and grown in greenhouse for the first four weeks. After transfer to the growth chamber, the plants were maintained under 12-hour photoperiod at 22° C. with an 80% relative humidity. Six-week old plants were inoculated with Sclerotinid-infected carrot plugs or sprayed with an aqueous solution of either 5 mM oxalic acid, 5 mM H2O2, 5 mM salicylic acid or 45 μM jasmonic acid (with 0.1% ethanol). For each plant, three petioles were inoculated and wrapped with a 1 inch×2 inch piece of parafilm. Plant tissue samples were harvested at different time points and immediately frozen in liquid nitrogen and then stored at −80° C.
Plant materials were ground in liquid nitrogen, and total RNA was extracted by the Tri-Reagent method. RNA profiling was conducted using CuraGen Corporation's proprietary method sold under the trademark GENECALLING. See U.S. Pat. No. 5,871,697, herein incorporated by reference. Profiles of RNA samples prepared from combined leaf and stem tissues of six-week-old oxox sunflower plants were compared to profiles of similar RNA samples from of six-week-old SMF3 plants.
Total RNA (20 μg) was separated in a 1% agarose gel containing formaldehyde. Ethidium bromide was included to verify equal loading of RNA. After transfer onto Hybond N+membrane, the blots were hybridized with ^32P-labeled NCE, AAP, or GRP cDNA probes. As a control, a duplicate blot was hybridized with a probe complementary to 18S rRNA. Hybridization and washing conditions were performed according to Church et al. ((1984) Proc. Natl. Acad. Sci. USA 81:1991-1995).

Compound | NCE gene expression (transcript level, Northern blot)
OO [H2O2] | negatively regulated; also recorded: down-regulated
O=C(O)C(=O)O [oxalic acid] | negatively regulated
O=C(O)c1ccccc1O [salicylic acid] | negatively regulated; also recorded: down-regulated
CC/C=C\C[C@H]1C(=O)CC[C@@H]1CC(=O)O [jasmonic acid] | negatively regulated; also recorded: down-regulated
